Assay results reported in patent publication US6093714A, “Tricyclic benzazepine compounds” (priority 1995, dated 2000).
pIC50: −log10 of the molar value. Where a name gives a salt, the structure may show the parent alone. Read-outs that look alike come from different tables or passages of the source.

What was measured:
intraperitoneal cells = test: Histamine release reaction inhibition test (rat intraperitoneal cells, DNP-As antigen); type: cell-based, Wistar male rat; settings: 10^-5 to 10^-10 M test compound, DNP-As stimulated intraperitoneal cells, 10^5 cells/ml, read-out: IC50 (dose of the test compound required for inhibiting the histamine release reaction by 50%)
Method: Histamine release reaction inhibition test
(1) Preparation of antiserum
Rat anti-dinitrophenylated ascaris protein (hereinafter referred to as "DNP-As") serum was prepared according to the method established by Tada et al. (Tada, T. and Okumura, K., J. Immun. 106(4), 1971). Specifically, 1010 organisms of Bordetella pertussis and 1 mg of DNP-As were intramuscularly administered to the foot pad of the limbs of Brown norway male rats weighing 200 g, and, five days after the administration, 0.5 mg of DNP-As was intramuscularly administered to the back. Three days after that, blood was collected to prepare an antiserum. The titer of the antiserum was determined by using a 48-hr passive cutaneous anaphylaxis reaction using a rat and found to be 1:1000 to 1:2000.
(2) Induction of histamine release reaction and release reaction inhibitory activity
The above serum was diluted four times with physiological brine, and 1 ml of the diluted serum was intraperitoneally administered to a Wistar male rat. Two days after the administration, the abdominal cavity was washed with phosphate buffer, and intraperitoneal cells were collected. The cells were adjusted to 10^5 cells/ml and stimulated with 1 pg/ml DNP-As, and the amount of the histamine released on the supernatant was measured by the method established by Shore et al (Shore, P. A., Burkhalter, A. H. and Chon Jr. V. H. J. Pharm. Exp. Ther., 127 , 182-186 (1959)).
The amount of the released histamine treated with 10^-5 to 10^-10 M test compound was compared with that of non-treated group. The dose of the test compound required for inhibiting the histamine release reaction by 50% (IC50) was calculated based on the percentage inhibition. IC50 of sodium cromoglicate was used as a control.

[1] = system: allergic foot-pad edema reaction; test: Immediate and late phase allergic response inhibition test (allergic foot-pad edema reaction); type: in vivo, Wister male rats; settings: Rattus norvegicus; for inhibition in vivo at 20 mg/kg: po, 20 mg/kg orally, 10 min before induction
Method: Immediate and late phase allergic response inhibition test
Wister male rats weighing of 200 g were provided. 1010 organisms of Bordetella pertussis and 1 mg of dinitrophenylated ovalbumin (hereinafter abbreviated to "DNP-OA") were intramuscularly administered into the foot pad of the limbs of the rats except for the right hind leg. Further, ten days after the administration, 5 pg/site DNP-OA was subcutaneously administered to the right hind leg to induce allergic foot-pad edema reaction. The inhibitory activity of the test compounds was determined in such a manner that the volume of edema 30 min after the induction of the allergic reaction was regarded as an immediate phase allergic response and the volume of edema 8 hr after the induction of the allergic reaction was regarded as a late phase allergic response. Each test compound was dissolved or suspended in a 0.25% Tween 80 solution, and the solution or suspension was orally administered at a dose of 20 mg/kg 10 min before the induction of the allergic reaction.
Only the 0.25% Tween 80 solution was administered to the control group of rats not treated with any test compound, and 100 mg/kg sodium cromoglicate was subcutaneously or orally administered to the positive control group of rats.
The percentage inhibition of the allergic foot-pad edema reaction was determined by the following equation.
Percentage inhibition of allergic foot-pad edema reaction=(A-B)/A×100
wherein A: average edema volume for the non-treated control group of rats; and
B: average edema volume for the group of rats with the test compound administered.

[2] = cited from earlier work
[3] = 0.5 h, edema 30 min after induction, read-out: Inhibition (%) Immediate phase response
[4] = edema 8 hr after induction, read-out: Inhibition (%) Late phase response

SMILES	pIC50 (intraperitoneal cells)	inhibition in vivo at 20 mg/kg [1, 3] [%]	inhibition in vivo at 20 mg/kg [1, 4] [%]	inhibition in vivo at 100 mg/kg ([1]; 0.5 h, oral administration, edema 30 min after induction, read-out: Inhibition (%) Immediate phase response) [%]	inhibition in vivo at 100 mg/kg ([1]; sc, 0.5 h, subcutaneous administration, edema 30 min after induction, read-out: Inhibition (%) Immediate phase response) [%]	inhibition in vivo at 100 mg/kg ([1]; sc, subcutaneous administration, edema 8 hr after induction, read-out: Inhibition (%) Late phase response) [%]	inhibition in vivo at 100 mg/kg ([1]; oral administration, edema 8 hr after induction, read-out: Inhibition (%) Late phase response) [%]	oral absorption [2]
COc1cc2[nH]c(=O)c3nn[nH]c3c(=O)c2cc1OC(C)C [Example 23, 8-Isopropoxy-7-methoxy-4(5H),10-dioxo-1H-1,2,3-triazolo[4,5-c][1]benzazepine]	8.62	71	56	–	–	–	–	–
CC(C)Oc1cc2[nH]c(=O)c3nn[nH]c3c(=O)c2cc1OC(C)C [Example 25, 7,8-diisopropoxy-4(5H),10-dioxo-1H-1,2,3-triazolo[4,5-c][1]benzazepine]	8.31	59	38	–	–	–	–	–
O=c1[nH]c2cc3c(cc2c(=O)c2[nH]nnc12)OCO3 [Example 26, 7,8-Methylenedioxy-4(5H),10-dioxo-1H-1,2,3-triazolo[4,5-c][1]benzazepine]	7.16	43	29	–	–	–	–	–
Cc1cc2[nH]c(=O)c3nn[nH]c3c(=O)c2cc1O [Example 28, 8-Hydroxy-7-methyl-4(5H),10-dioxo-1H-1,2,3-triazolo[4,5-c][1]benzazepine]	7.92	51	48	–	–	–	–	–
COc1cc2c(=O)c3[nH]nnc3c(=O)[nH]c2c(OC)c1OC [Example 30, 6,7,8-Trimethoxy-4(5H),10-dioxo-1H-1,2,3-triazolo[4,5-c][1]benzazepine]	8.06	58	51	–	–	–	–	–
Cc1cccc(/C=C/c2ccc3c(=O)c4[nH]nnc4c(=O)[nH]c3c2)n1 [Example 32, (E)-7-(2-(6-Methyl-2-pyridyl)-(E)-ethenyl)-4(5H),10-dioxo-1H-1,2,3-triazolo[4,5-c][1]benzazepine trifluoroacetate]	8.92	55	43	–	–	–	–	–
O=c1[nH]c2cc(C(F)(F)F)ccc2c(=O)c2[nH]nnc12 [Example 34, 7-Trifluoromethyl-4(5H),10-dioxo-1H-1,2,3-triazolo[4,5-c][1]benzazepine]	8.28	66	59	–	–	–	–	–
O=C(O)c1cc(=O)c2c(OCC(O)COc3cccc4oc(C(=O)O)cc(=O)c34)cccc2o1 [Sodium cromoglicate, reference compound]	5.74	–	–	16	75	53	20	poor oral absorption
